From US6696483B2, “Inhibitors of angiogenesis and tumor growth for local and systemic administration” (OncoPharmaceutical, Inc., priority 2000, dated 2004) come the findings set out here.

Data set [1] has as its system RIF-1 tumors. Put plainly: In vivo efficacy in mice carrying RIF-1 (radiation induced fibrosarcoma-1) tumors. Details: species or system C3H mice. The note with it: Example 3. As for the experimental part: (§1) For Examples 1-3, the pharmaceutical formulations were prepared just prior to use. Various amounts of brefeldin A (BFA) (mg of drug/kg animal's body weight) were weighed out, and solvent (varying amounts of ethanol in saline) was then added. The mixtures were either vortexed (mechanical mixing) or sonicated until the drug was either completely dissolved or only a very small amount appeared to settle in the bottom the test tube.
(§2) In vivo efficacy was determined using either inbred C3H or hybrid B6D2F1 mice carrying RIF-1 (radiation induced firbrosarcoma-1) or LL/2 (Lewis lung carcinoma) tumors, respectively. The tumor cells were kept in a CO2/O2 atmosphere at 37° C., and grown in monolayers. When confluent, cells were rinsed with ice-cold phosphate buffered ethylenediamine tetraacetic acid (EDTA), followed by trypsin/EDTA treatment for about 3 minutes at 37° C. The cells were then dispersed by the addition of medium with serum and spun down using a centrifuge, then washed once in phosphate-buffered saline (PBS) prior to suspending at the desired density (cells/ml) in sterile Hank's balanced salt solution (HBSS). The cells were then inoculated subcutaneously (s.c.) with either a 100 μl or 50 μl injection on one flank of each mouse to provide the desired number of cells (1.25×10^5, 2.5×10^5 or 5.0×10^5) per site.
Five to ten days after inoculation with the tumor cells, treatment was initiated with either solvent alone for control groups, or solvent with BFA for the treated group. The mice were treated daily for one to two weeks either intraperitoneally (i.p.) or intravenously (i.v.). […] The body weight for each mouse was recorded daily until the end of treatment. […]
The efficacy of a lower dose of BFA (8 mg/kg), in a lower concentration of ethanol (1.0%) in phosphate-buffered saline, relative to Examples 1 and 2 was determined. […]
(§3) All mice were observed daily for signs of gross toxicity and the absence or presence of tumor growth. […] Efficacy was determined by tumor growth delay as evidenced by the size and appearance of the tumor in the treated group relative to control.

In data set [2] the test system is rat aortic ring explant cultures. Put plainly: Ex vivo rat aortic ring explant assay (microvessel outgrowth). It is filed as cell-based, Sprague-Dawley rats. The note with it: tested concentrations of 200 nM and above (200, 400, 1000 nM); Day 7; average of three trials. As for the experimental part:
The ex vivo influence of brefeldin A on angiogenesis was evaluated as follows. Male Sprague-Dawley rats weighing approximately 250 g were anesthetized and their thoracic aortas removed carefully to avoid damaging the vessel wall. Aortas were rinsed in serum-free endothelial cell basal medium, the surrounding adventitia removed and cleaned, and the vessels cut into two millimeter (mm) concentric rings. Each ring was embedded in freshly prepared rattail collagen. Following gelation for 30 minutes at 37° C., collagen gel cultures were transferred to 16 mm wells (4 well plate), each containing 0.5 ml of serum free (MCBD 131) medium. Brefeldin A was dissolved in DMSO and mixed with serum free medium at final concentrations of 40 nM 100 nM, 200 nM, 400 nM, and 1000 nM immediately prior to the addition of media to collagen-embedded rat aortic ring explant cultures. The final concentration of DMSO in treated and control cultures was 0.02%. Explant cultures were incubated at 35.5° C. in a 5% CO2 humidified atmosphere, and the media replaced every two days over the course of the 8-10 day study. Visual counts of microvessel outgrowths from replicate explant cultures were performed using bright field microscopy during microvessel peak growth (Day 7).
Data were expressed as percent inhibition of microvessel growth relative to vehicle-treated control cultures (FIG. 8). […]

In data set [3] the test system is Human umbilical vein endothelial cells (HUVECs). Briefly: In vitro capillary tube formation assay on Matrigel. It counts as cell-based. The settings on record: tested concentrations of 4.0 nM and above (4.0, 40, 100, 400 nM); 18 hours. As for the experimental part: The in vitro influence of brefeldin A on angiogenesis was evaluated. Human umbilical vein endothelial cells (HUVECs) were cultured in medium EBM-2 complete™ (BioWhittaker, Inc., Baltimore, Md.). Matrigel® (200 μl, synthetic basement membrane substrate) was pipetted gently to avoid air bubbles on the surface of a 48-well plate. Following application of Matrigel® substrate, the plate was placed in an incubator at 37° C. for 30 minutes to promote gelling. HUVECs were harvested from tissue culture flasks, counted, and diluted to 15×10^4/ml. The cell suspension (200 μl) was added to the Matrigel® substrate, such that the final concentration was 30,000 cells/well. Two wells/concentration were used. For evaluation of antiangiogenic activity, a 0.4 mM BFA stock (in dimethyl sulfoxide, DMSO) was diluted to a final concentration of 400, 100, 40, 4.0, and 0.4 nM before adding cells. The final DMSO concentration was 0.02%. […] To evaluate capillary tube formation, plates were viewed under phase contrast low magnification (10×), a photo reticule was used to define the area, and the capillary tube network was counted within the designated area. Only complete tubes that were inside the rectangle were counted.
Data were expressed as percent of complete capillary tube formation relative to untreated control cultures incubated under the same conditions (control=100%). […]

Data set [4] relates to LL/2 (Lewis lung carcinoma) tumors. Put plainly: In vivo efficacy in mice carrying LL/2 (Lewis lung carcinoma) tumors. Details: species or system B6D2F1 mice. On the procedure:
as §1, §2
(§4) Five to ten days after inoculation with the tumor cells, treatment was initiated with either solvent alone for control groups, or solvent with BFA for the treated group. The mice were treated daily for one to two weeks either intraperitoneally (i.p.) or intravenously (i.v.). The mice (weighing approximately 25 g each) were observed daily for the absence or presence of a tumor, as well as for signs of gross toxicity such as weight loss, hair loss, lethargy, and/or dehydration. The body weight for each mouse was recorded daily until the end of treatment. At the termination of treatment, mice were euthanized, and their tumors removed and stored in formalin for sectioning and staining in future studies. In some experiments, organs such as the kidney, spleen, liver, and brain were also stored in formalin (10%) for future histological analysis of organ toxicity.
The toxicity and efficacy of brefeldin A (BFA, 11 mg/kg) in 10% ethanol (in saline) were determined in B6D2F1 mice. On Day 0, mice were inoculated on one flank with 1.25×10^5 LL/2 tumor cells in 50 μl liquid carrier. […]
All mice were observed daily for signs of gross toxicity and the absence or presence of tumor growth. […] Efficacy was determined by delay in the appearance of the tumor in the experimental group relative to control.
(§5) The efficacy of brefeldin A (BFA, 12 mg/kg) in 10% ethanol (in saline) was evaluated in B6D2F1 mice with a higher tumor cell burden than used in Example 1. […]

Data set [5] can be described thus: Gross toxicity and organ histology in LL/2 tumor-bearing mice. It counts as in vivo, B6D2F1 mice. On the procedure:
as §4
The toxicity and efficacy of brefeldin A (BFA, 11 mg/kg) in 10% ethanol (in saline) were determined in B6D2F1 mice. On Day 0, mice were inoculated on one flank with 1.25×10^5 LL/2 tumor cells in 50 μl liquid carrier. Five days after inoculation with the tumor cells, mice were randomized into control and treated groups. The mice received daily treatments (0.2 ml, i.p.) for two weeks with either 10% ethanol in phosphate-buffered saline (control) or 10% ethanol in phosphate-buffered saline with BFA (treated). Each mouse in the treated group received a total dose of 0.28 mg of BFA daily.
All mice were observed daily for signs of gross toxicity and the absence or presence of tumor growth. In addition, all mice were weighed daily. […] Efficacy was determined by delay in the appearance of the tumor in the experimental group relative to control.
as §5
All mice were observed daily for signs of gross toxicity and the absence or presence of tumor growth. […] Efficacy was determined by delay in the appearance of tumor in the experimental group relative to control.

Data set [6] in a line: Gross toxicity in RIF-1 tumor-bearing mice. It counts as in vivo, C3H mice. The note with it: Example 3; 8 mg/kg i.v. daily for eight days. As for the experimental part: as §4
On Day 0, C3H mice were inoculated on one flank (s.c.) with 2.5×10^5 RIF-1 tumor cells in 50 μl liquid carrier. Ten days following tumor cell inoculation, mice were randomized into control and treated groups. […]
as §3

The mark [7] stands for this setting: Example 2, 12 mg/kg i.p. daily for two weeks, 5.0×10^5 LL/2 cells.

Structures are written as SMILES.

As to `C[C@H]1CCC/C=C/[C@@H]2C[C@H](O)C[C@H]2[C@H](O)/C=C/C(=O)O1` [brefeldin A], in data set [1] (8 mg/kg i.v. daily for eight days), the “vessel density in tumor sections (qualitative)” value was “less vessel density”. Besides, in data set [1] (8 mg/kg i.v. daily for eight days in 1.0% ethanol, 2.5×10^5 RIF-1 cells), the “tumor size relative to control (FIG. 6)” value is “significantly smaller”. Moreover, in data set [1] (8 mg/kg i.v. daily for eight days, control tumors penetrated muscle), the “tumor invasiveness on harvesting” value was “remained relatively localized and relatively easy to remove”. Also, the “inhibition of angiogenesis (microvessel growth relative to vehicle-treated control)” value in data set [2] is listed as “more than 50%”. For the same compound, the “inhibition of angiogenesis (complete capillary tube formation relative to untreated control)” value in data set [3] is “more than 50%”. Further, the “presence of tumor (gross observation, FIG. 1)” value in data set [4] (Example 1, 11 mg/kg i.p. daily for two weeks in 10% ethanol, 1.25×10^5 LL/2 cells) was “no evidence of tumor was observed”. Besides, in data set [4] (Example 1, 11 mg/kg i.p. daily for two weeks, after final treatment), the “tumor at inoculation site (skin sample histology, FIG. 2A)” value is on record as “No evidence of tumor at the injection site”. Moreover, in data set [4] (setting [7]), the “tumor growth delay (FIG. 3)” value is “significant tumor growth delay” and the “tumor size reduction relative to control group” value was “at least 25%”. Moreover, the “gross toxicities (weight loss, hair loss, lethargy, dehydration)” value in data set [5] (Example 1, 11 mg/kg i.p. daily for two weeks) is recorded as “not observed”. The “toxicity-related effects in brain, kidney, liver, spleen” value in data set [5] (Example 1, 11 mg/kg i.p. daily for two weeks, H&E histology) is on record as “no toxicity-related effects”. Besides, the “gross toxicity (weight loss (FIG. 4), hair loss, lethargy)” value in data set [5] (Example 2, 12 mg/kg i.p. daily for two weeks) is on record as “no gross toxicity”. In data set [6], the “gross toxicity (weight loss, hair loss, lethargy, dehydration)” value is “no gross toxicity was observed”.
